Molecular target: IDO1 (Homo sapiens, UniProt P14902)
Experiment: IDO1 Human Whole Blood Assay
Format: cell-based
Details: WBLD taken as whole blood; read-out: WBLD IC50
Protocol: Compounds to be tested were serially diluted in ten 3-fold steps in DMSO starting from 10 mM. 3 μL of compound dilutions or DMSO alone were then dispensed from the dilution plate into a polypropylene 96-well assay plate containing 97 μL of RPMI medium using an Echo 555 acoustic liquid handler (Labcyte). LPS and IFNγ was prepared in RPMI medium to a 10× of final conc. (1000 ng/mL), final concentration is 100 ng/mL.
Human whole blood was drawn in sodium heparin coated tubes from healthy internal donors. 240 μL of blood was transferred to each of the wells of a v-bottom 96 well plate. 30 μL of compound was transferred from intermediate dilution plate, and incubated for 15 min. 30 μL from stimulants was then transferred to blood and mixed thoroughly. Plate was covered with breathable membrane and incubated at 37° C. for overnight (18 h).
On day 2, isotope labeled standard solutions of kunurenine and tryptophan was made in water at 10× concentration and 30 μL was added to the blood at 3 μM final concentration. The assay plates were centrifuged at 300×G for 10 min with no brake to separate plasma from red blood cells. 60 μL of plasma samples was removed without disturbing red blood cells. Plasma was diluted with RPMI in 1:1 ratio and proteins were precipitated out with two volumes of Acetonitrile. The plates were centrifuged at 4000×G for 60 min. 20 μL of supernatant was carefully transferred to a 384 well plate containing 40 μL of 0.1% formic acid in water and analyzed by LC/MS/MS.
LC/MS/MS analyses were performed using Thermo Fisher's LX4-TSQ Quantum Ultra system. This system consists of four Agilent binary high-performance liquid chromatography (HPLC) pumps and a TSQ Quantum Ultra triple quadrupole MS/MS instrument. For each sample, 5 μL were injected onto an Atlantis T3 column (2.1 mm×150 mm, 3 μm particle size) from Waters. The mobile phase gradient pumped at 0.8 mL/min was used to elute the analytes from the column at 25° C. The elution started at 0% B increasing linearly to 25% B at 6.5 min, holding at 25% for 1 min, re-equilibrating to 10 min. Mobile phase A consisted of 0.1% formic acid in water. Mobile phase B consisted of 0.1% of formic acid in acetonitrile. Data were acquired in positive mode using a HESI interface. The operational parameters for the TSQ Quantum Ultra instrument were a spray voltage of 4000 V, capillary temperature of 380° C., vaporizer temperature 400° C., shealth gas 60 arbitrary units, Aux gas 20 arbitrary units, tube lens 85 and collision gas 1.2 mTorr. SRM chromatograms of kynurenine (Q1: 209.2>Q3:94.0) and internal standard (Q1: 215.3>Q3:98.2) were collected for 90 sec. The peak area was integrated by Xcalibur Quan software. The ratios between the kynurenine generated in the reaction and 2D6-Kynurenine spiked-in internal standard were used to generate percentage inhibition and IC50 values. Compounds were titrated and IC50's were calculated by 4 parameter sigmoidal curve fitting formula.

IDO1, sequence (P14902 whole entry): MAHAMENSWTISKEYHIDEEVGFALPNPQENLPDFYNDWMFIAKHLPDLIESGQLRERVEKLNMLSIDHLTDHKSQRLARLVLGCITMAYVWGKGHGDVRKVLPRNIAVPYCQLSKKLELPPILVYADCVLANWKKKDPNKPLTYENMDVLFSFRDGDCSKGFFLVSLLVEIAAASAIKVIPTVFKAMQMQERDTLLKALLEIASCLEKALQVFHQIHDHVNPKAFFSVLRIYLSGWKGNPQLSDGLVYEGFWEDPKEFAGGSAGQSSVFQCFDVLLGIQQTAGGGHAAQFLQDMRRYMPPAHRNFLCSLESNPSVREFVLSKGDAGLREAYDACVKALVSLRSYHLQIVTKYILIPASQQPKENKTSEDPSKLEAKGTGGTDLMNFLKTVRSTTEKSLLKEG

Row | SMILES | IC50
1 | C[C@@H]1CN(C(=O)c2nn(CC(=O)N3CCC(Oc4cc(F)ccc4Br)CC3)c3c2CCC3)C[C@H](C)O1 [Example 91, 1-[4-(2-bromo-5-fluorophenoxy)piperidin-1-yl]-2-{3-[(2R,6S)-2,6-dimethylmorpholine-4-carbonyl]-5,6-dihydrocyclopenta[c]pyrazol-1(4H)-yl}ethan-1-one] | 86.6 nM
2 | Cc1ccc(Cl)c(OC2CCN(C(=O)Cn3nc(C(=O)N4C[C@@H](C)O[C@@H](C)C4)c4c3CCC4)CC2)c1 [Example 93, 1-[4-(2-chloro-5-methylphenoxy)piperidin-1-yl]-2-{3-[(2R,6S)-2,6-dimethylmorpholine-4-carbonyl]-5,6-dihydrocyclopenta[c]pyrazol-1(4H)-yl}ethan-1-one] | 265 nM
3 | Cc1ccc(OC2CCN(C(=O)Cn3nc(C(=O)N4C[C@@H](C)O[C@@H](C)C4)c4c3CCC4)CC2)cc1 [Example 95, 2-{3-[(2R,6S)-2,6-dimethylmorpholine-4-carbonyl]-5,6-dihydrocyclopenta[c]pyrazol-1(4H)-yl}-1-[4-(4-methylphenoxy)piperidin-1-yl]ethan-1-one] | 360 nM
4 | Cc1ccccc1OC1CCN(C(=O)Cn2nc(C(=O)N3C[C@@H](C)O[C@@H](C)C3)c3c2CCC3)CC1 [Example 116, 2-{3-[(2R,6S)-2,6-dimethylmorpholine-4-carbonyl]-5,6-dihydrocyclopenta[c]pyrazol-1(4H)-yl}-1-[4-(2-methylphenoxy)piperidin-1-yl]ethan-1-one] | 46.8 nM
5 | Cc1c(F)cccc1OC1CCN(C(=O)Cn2nc(C(=O)N3C[C@@H](C)O[C@@H](C)C3)c3c2CCC3)CC1 [Example 128, 2-{3-[(2R,6S)-2,6-dimethylmorpholine-4-carbonyl]-5,6-dihydrocyclopenta[c]pyrazol-1(4H)-yl}-1-[4-(3-fluoro-2-methylphenoxy)piperidin-1-yl]ethan-1-one] | 49.2 nM
6 | C[C@@H]1CN(C(=O)c2nn(CC(=O)N3CCC(Oc4ccc(Cl)c5c4CCC5)CC3)c3c2CCC3)C[C@H](C)O1 [Example 129, 1-{4-[(7-chloro-2,3-dihydro-1H-inden-4-yl)oxy]piperidin-1-yl}-2-{3-[(2R,6S)-2,6-dimethylmorpholine-4-carbonyl]-5,6-dihydrocyclopenta[c]pyrazol-1(4H)-yl}ethan-1-one] | 3320 nM
7 | Cc1ccc(F)cc1OC1CCN(C(=O)Cn2nc(C(=O)N3C[C@@H](C)O[C@@H](C)C3)c3c2CCC3)CC1 [Example 135, 2-[3-(2,6-dimethylmorpholine-4-carbonyl)-5,6-dihydrocyclopenta[c]pyrazol-1(4H)-yl]-1-[4-(5-fluoro-2-methylphenoxy)piperidin-1-yl]ethan-1-one] | 112 nM
8 | Cc1ccccc1NC1CCN(C(=O)Cn2nc(C(=O)N3CCC(F)(CO)CC3)c3c2C[C@H]2C[C@@H]32)CC1 [Example 176, 2-((3bR,4aR)-3-(4-Fluoro-4-(hydroxymethyl)piperidine-1-carbonyl)-3b,4,4a,5-tetrahydro-1H-cyclopropa[3,4]cyclopenta[1,2-c]pyrazol-1-yl)-1-(4-(o-tolylamino)piperidin-1-yl)ethan-1-one] | 396 nM

Next, values leading:

Row | IC50 | SMILES
9 | 142 nM | Cc1ccc(F)cc1OC1CCN(C(=O)Cn2nc(C(=O)N3C[C@@H](C)O[C@@H](C)C3)c3c2CCC3)CC1 [Example 90, 2-(3-(cis-2,6-Dimethylmorpholine-4-carbonyl)-5,6-dihydrocyclopenta[c]pyrazol-1(4H)-yl)-1-(4-(5-fluoro-2-methylphenoxy)piperidin-1-yl)ethan-1-one]
10 | 575 nM | C[C@@H]1CN(C(=O)c2nn(CC(=O)N3CCC(Oc4cccc(F)c4)CC3)c3c2CCC3)C[C@H](C)O1 [Example 99, 2-{3-[(2R,6S)-2,6-dimethylmorpholine-4-carbonyl]-5,6-dihydrocyclopenta[c]pyrazol-1(4H)-yl}-1-[4-(3-fluorophenoxy)piperidin-1-yl]ethan-1-one]
11 | 490 nM | C[C@@H]1CN(C(=O)c2nn(CC(=O)N3CCC(Oc4ccc(F)cc4Cl)CC3)c3c2CCC3)C[C@H](C)O1 [Example 117, 1-[4-(2-chloro-4-fluorophenoxy)piperidin-1-yl]-2-{3-[(2R,6S)-2,6-dimethylmorpholine-4-carbonyl]-5,6-dihydrocyclopenta[c]pyrazol-1(4H)-yl}ethan-1-one]
12 | 150 nM | C[C@@H]1CN(C(=O)c2nn(CC(=O)N3CCC(Oc4cc(F)ccc4Cl)CC3)c3c2CCC3)C[C@H](C)O1 [Example 133, 1-[4-(2-chloro-5-fluorophenoxy)piperidin-1-yl]-2-{3-[(2R,6S)-2,6-dimethylmorpholine-4-carbonyl]-5,6-dihydrocyclopenta[c]pyrazol-1(4H)-yl}ethan-1-one]
13 | 241 nM | Cc1cccc(F)c1OC1CCN(C(=O)Cn2nc(C(=O)N3C[C@@H](C)O[C@@H](C)C3)c3c2CCC3)CC1 [Example 138, 2-{3-[(2R,6S)-2,6-dimethylmorpholine-4-carbonyl]-5,6-dihydrocyclopenta[c]pyrazol-1(4H)-yl}-1-[4-(2-fluoro-6-methylphenoxy)piperidin-1-yl]ethan-1-one]
14 | 532 nM | Cc1ccccc1SC1CCN(C(=O)Cn2nc(C(=O)N3CC[C@@H](O)[C@@H](F)C3)c3c2C[C@H]2C[C@@H]32)CC1 [Example 177, 2-((3bR,4aR)-3-((3S,4R)-3-Fluoro-4-hydroxypiperidine-1-carbonyl)-3b,4,4a,5-tetrahydro-1H-cyclopropa[3,4]cyclopenta[1,2-c]pyrazol-1-yl)-1-(4-(o-tolylthio)piperidin-1-yl)ethanone]

From patent US12576087B2, “Aryloxypiperidine pyrazole compounds as indoleamine 2,3-dioxygenase inhibitors” (Merck Sharp & Dohme LLC, priority 2018, dated 2026)
